The values that follow come from patent publication US20230243815A1, “AN APPARATUS COMPRISING MICROFLUIDIC PROTEIN-BASED SENSORS AND METHODS OF USING SAME” (UNIVERSITY OF MARYLAND, BALTIMORE COUNTY, priority 2020, published 2023).

Structures are written as SMILES.

The assay deals with branched-chain amino acid binding protein (Escherichia coli, UniProt P0AD96). In words: Binding of amino acids to branched-chain amino acid binding protein biosensor (microfluidic column sensor). Conditions: binding affinity of the analyte to the branched-chain amino acid binding protein biosensor; FIG. 9. The source says: FIG. 9(A) illustrates amino acids that bind at varying affinities to a microfluidic column biosensor, where F/F0 is the fluorescence intensity ratio.
Chain of branched-chain amino acid binding protein (P0AD96 24-367): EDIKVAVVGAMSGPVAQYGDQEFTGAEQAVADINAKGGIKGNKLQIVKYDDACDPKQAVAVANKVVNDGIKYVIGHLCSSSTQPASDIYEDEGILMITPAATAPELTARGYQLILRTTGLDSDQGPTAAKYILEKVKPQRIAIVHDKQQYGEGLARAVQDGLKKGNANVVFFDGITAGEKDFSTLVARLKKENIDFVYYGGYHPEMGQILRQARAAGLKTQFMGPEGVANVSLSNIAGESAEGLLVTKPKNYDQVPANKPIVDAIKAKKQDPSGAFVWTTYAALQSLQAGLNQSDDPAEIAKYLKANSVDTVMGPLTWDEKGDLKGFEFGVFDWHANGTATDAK
Microfluidic column sensors are also useful when the biosensor detects more than one analyte but with different binding affinities. […] This is shown in FIG. 9, where a mixture of these amino acids can be separately detected over the length of the microfluidic column.
As usually defined, the Kd is the constant that tells how readily two partners part at equilibrium. As to `CC(C)[C@H](N)C(=O)O` [valine], the Kd is 135 µM.

Consider `CC[C@H](C)[C@H](N)C(=O)O` [isoleucine], for which binding was put at a Kd of 68 µM.

In the case of `CC(C)C[C@H](N)C(=O)O` [leucine], the equilibrium dissociation constant (Kd) amounted to 58 µM.
